From ChEMBL document CHEMBL4004876, “Preliminary SAR on indole-3-carbinol and related fragments reveals a novel anticancer lead compound against resistant glioblastoma cells” (Bioorg Med Chem Lett, 2017)

What was measured:
[1] = Cytotoxicity against human IN1528 cells assessed as decrease in cell proliferation after 72 hrs by SRB assay; format: functional, cell-based; settings: IN1528, 72 h
[2] = Cytotoxicity against human IN1472 cells assessed as decrease in cell proliferation after 72 hrs by SRB assay; format: functional, cell-based; settings: IN1472, 72 h
U-251 = assay: Cytotoxicity against human U251 cells assessed as decrease in cell proliferation after 72 hrs by SRB assay; format: functional, cell-based; settings: U-251, 72 h
[3] = Cytotoxicity against human U87 cells assessed as decrease in cell proliferation after 72 hrs by SRB assay; format: functional, cell-based, U-87MG ATCC; settings: U-87 MG
[4] = Cytotoxicity against human IN1760 cells assessed as decrease in cell proliferation after 72 hrs by SRB assay; format: functional, cell-based; settings: IN1760, 72 h

Row | SMILES | EC50 [1] | EC50 [2] | EC50 (U-251) | EC50 [3] | EC50 [4]
1 | OCc1c[nH]c2ccccc12 [INDOLE-3-CARBINOL] | 119 µM | 950 µM | 390 µM | 290 µM | 1580 µM
2 | c1ccc(-c2[nH]c3ccccc3c2Cc2c(-c3ccccc3)[nH]c3ccccc23)cc1 | 270 µM | – | 50 µM | – | 50 µM
3 | CC(=O)n1cc(CO)c2ccccc21 | 5820 µM | – | 1760 µM | – | > 10000 µM
4 | OCc1csc2ccccc12 | 3990 µM | – | 1240 µM | – | 1080 µM
5 | OCCc1c[nH]c2ccccc12 [TRYPTOPHOL] | 1740 µM | 1950 µM | 1220 µM | 580 µM | 4570 µM
6 | OCc1c(-c2ccccc2)[nH]c2ccccc12 [(2-PHENYL-1H-INDOL-3-YL)METHANOL] | 10 µM | 480 µM | 130 µM | 30 µM | 1430 µM
7 | c1ccc2c(Cc3c[nH]c4ccccc34)c[nH]c2c1 [ARUNDINE] | 440 µM | – | 280 µM | – | 230 µM
8 | OCCc1c(-c2ccccc2)[nH]c2ccccc12 | 4 µM | 350 µM | 250 µM | 110 µM | 330 µM
9 | CC(=O)n1c(-c2ccccc2)c(CO)c2ccccc21 | > 10000 µM | – | 600 µM | – | > 10000 µM
10 | Cc1ccc(S(=O)(=O)n2cc(CO)c3ccccc32)cc1 | 440 µM | – | 140 µM | – | 650 µM
